The values below come from patent US11180496B2 (Daewoong Pharmaceutical Co., Ltd., priority 2017, dated 2021).

One assay concerns the target T1, BTK (Homo sapiens, UniProt Q06187).
T1 construct: purchased Promega
The experiment in a line: BTK inhibitory activity, ADP-Glo + BTK Kinase enzyme system kit (Promega). In kind it is biochemical. The settings on record: BTK enzyme 1 ng/uL, ATP 10 uM, 15 min preincubation, luminescence, duplicate. In outline: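 BTK activity measured by ADP-Glo luminescence: kinase reaction with substrate and 10 uM ATP (final) for 1 h at 30°C, then ADP-Glo reagent 40 min and detection 30 min at 30°C. Run in duplicate; IC50 calculated relative to no-compound and positive controls.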

A further assay concerns the target T2, ITK (Homo sapiens, UniProt Q08881).
T2 construct: purchased Promega
T2 sequence (Q08881 1-620): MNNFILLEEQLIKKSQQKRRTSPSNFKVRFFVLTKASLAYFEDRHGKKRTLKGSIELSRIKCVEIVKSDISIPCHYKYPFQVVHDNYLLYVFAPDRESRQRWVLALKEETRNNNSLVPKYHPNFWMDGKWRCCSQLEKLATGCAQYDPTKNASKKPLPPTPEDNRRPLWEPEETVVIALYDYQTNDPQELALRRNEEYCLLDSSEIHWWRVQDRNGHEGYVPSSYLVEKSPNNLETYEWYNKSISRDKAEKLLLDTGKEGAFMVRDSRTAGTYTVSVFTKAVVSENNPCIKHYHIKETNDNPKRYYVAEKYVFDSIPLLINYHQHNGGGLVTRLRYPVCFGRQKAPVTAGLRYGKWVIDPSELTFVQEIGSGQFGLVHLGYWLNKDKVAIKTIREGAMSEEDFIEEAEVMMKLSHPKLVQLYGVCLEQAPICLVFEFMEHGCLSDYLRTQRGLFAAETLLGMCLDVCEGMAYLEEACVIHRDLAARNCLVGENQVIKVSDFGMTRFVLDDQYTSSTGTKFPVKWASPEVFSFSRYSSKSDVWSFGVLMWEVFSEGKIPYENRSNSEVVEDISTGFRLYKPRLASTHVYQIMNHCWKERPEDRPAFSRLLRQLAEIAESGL
Put plainly: ITK inhibitory activity, ADP-Glo + ITK Kinase enzyme system kit (Promega). The assay is classed as biochemical. The note with it: ITK enzyme 0.4 ng/uL, ATP 25 uM, 15 min preincubation, luminescence, duplicate. In outline: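 ITK activity by ADP-Glo luminescence: substrate and ATP (final 25 uM) reacted 1 h at 30° C, then ADP-Glo reagent 40 min and detection reagent 30 min at 30° C. IC50 from duplicates, normalised to no-compound and enzyme-free controls.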
In general terms: In ADP-Glo the light output rises with the ADP produced.

T1 sequence (Q06187 whole entry): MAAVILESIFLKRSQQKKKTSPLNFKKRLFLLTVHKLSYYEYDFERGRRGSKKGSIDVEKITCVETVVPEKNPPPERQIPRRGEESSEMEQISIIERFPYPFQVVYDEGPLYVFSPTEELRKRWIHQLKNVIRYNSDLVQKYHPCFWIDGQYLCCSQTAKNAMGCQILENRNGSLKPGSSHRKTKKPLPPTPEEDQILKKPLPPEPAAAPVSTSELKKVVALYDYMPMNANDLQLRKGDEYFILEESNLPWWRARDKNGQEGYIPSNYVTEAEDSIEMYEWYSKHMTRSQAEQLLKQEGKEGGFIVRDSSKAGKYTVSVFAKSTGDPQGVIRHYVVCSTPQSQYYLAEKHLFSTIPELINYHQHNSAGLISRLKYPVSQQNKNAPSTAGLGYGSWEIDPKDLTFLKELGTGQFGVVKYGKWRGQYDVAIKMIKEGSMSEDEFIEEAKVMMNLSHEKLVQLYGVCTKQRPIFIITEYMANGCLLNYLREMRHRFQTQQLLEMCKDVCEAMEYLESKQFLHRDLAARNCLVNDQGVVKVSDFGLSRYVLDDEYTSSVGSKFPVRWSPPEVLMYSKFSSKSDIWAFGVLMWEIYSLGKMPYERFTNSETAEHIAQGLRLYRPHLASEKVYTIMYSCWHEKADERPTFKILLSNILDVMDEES

Usually IC50 stands for the concentration that inhibits the measured activity by half. Consider `C=CC(=O)N1CCC[C@@H](n2nc(-c3ccc(C(=O)Nc4ccccn4)cc3Cl)c3c(N)ncc(I)c32)C1` [Example 65, (R)-4-(1-(1-acryloylpiperidin-3-yl)-4-amino-7-iodo-1H-pyrazolo[4,3-c]pyridin-3-yl)-3-chloro-N-(pyridin-2-yl)benzamide], for which the concentration for half-maximal inhibition (IC50) at BTK was determined as 0.4 nM; on ITK it was 1.3 nM.
Regarding `C=CC(=O)N1CCC[C@@H](n2nc(-c3ccc(C(=O)Nc4ccccn4)cc3Cl)c3c(N)ncc(C#N)c32)C1` [Example 66, (R)-4-(1-(1-acryloylpiperidin-3-yl)-4-amino-7-cyano-1H-pyrazolo[4,3-c]pyridin-3-yl)-3-chloro-N-(pyridin-2-yl)benzamide], the 50% inhibitory concentration (IC50) at BTK and on ITK was 1.3 nM each time.
Turning to `C=CC(=O)N1CCC[C@@H](n2nc(-c3ccc(C(=O)Nc4ccccn4)cc3Cl)c3c(N)ncc(-c4cnn(C)c4)c32)C1` [Example 67, (R)-4-(1-(1-acryloylpiperidin-3-yl)-4-amino-7-(1-methyl-1H-pyrazol-4-yl)-1H-pyrazolo[4,3-c]pyridin-3-yl)-3-chloro-N-(pyridin-2-yl)benzamide], the IC50 is 2 nM at BTK and 2.7 nM at ITK.
In the same order, the values of `C=CC(=O)N1CCC[C@@H](n2nc(-c3ccc(C(=O)Nc4ccccn4)cc3Cl)c3c(N)ncc(CC)c32)C1` [Example 68, (R)-4-(1-(1-acryloylpiperidin-3-yl)-4-amino-7-ethyl-1H-pyrazolo[4,3-c]pyridin-3-yl)-3-chloro-N-(pyridin-2-yl)benzamide] are 0.9 nM and 1.7 nM.
In the same order, the values of `C=CC(=O)N1CCC[C@@H](n2nc(-c3ccc(C(=O)Nc4ccccn4)cc3Cl)c3c(N)ncc(C=C)c32)C1` [Example 69, (R)-4-(1-(1-acryloylpiperidin-3-yl)-4-amino-7-vinyl-1H-pyrazolo[4,3-c]pyridin-3-yl)-3-chloro-N-(pyridin-2-yl)benzamide] are 2 nM and 2.9 nM.
Take `C=CC(=O)N1CCC[C@@H](n2nc(-c3ccc(C(=O)Nc4ccccn4)cc3Cl)c3c(N)ncc(-c4cn[nH]c4)c32)C1` [Example 70, (R)-4-(1-(1-acryloylpiperidin-3-yl)-4-amino-7-(1H-pyrazol-4-yl)-1H-pyrazolo[4,3-c]pyridin-3-yl)-3-chloro-N-(pyridin-2-yl)benzamide]: the IC50 stood at 2 nM at BTK and 5.2 nM on ITK.
In the same order, the values of `C=CC(=O)N1CCC[C@@H](n2nc(C(=O)Nc3nc4cc(Cl)ccc4o3)c3c(N)nccc32)C1` [Example 71, (R)-1-(1-acryloylpiperidin-3-yl)-4-amino-N-(5-chlorobenzo[d]oxazol-2-yl)-1H-pyrazolo[4,3-c]pyridine-3-carboxamide] are 3.4 nM and 4.1 nM.
In the same order, the values of `C=CC(=O)N1CCC[C@@H](n2nc(C(=O)OC(C)(C)C)c3c(N)nccc32)C1` [Example 72, (R)-tert-butyl 1-(1-acryloylpiperidin-3-yl)-4-amino-1H-pyrazolo[4,3-c]pyridine-3-carboxylate] are 88.9 nM and 68.2 nM.
In the same order, the values of `C=CC(=O)N1CCC[C@@H](n2nc(C(=O)Nc3nc4ccc(Br)cc4o3)c3c(N)nccc32)C1` [Example 73, (R)-1-(1-acryloylpiperidin-3-yl)-4-amino-N-(6-bromobenzo[d]oxazol-2-yl)-1H-pyrazolo[4,3-c]pyridine-3-carboxamide] are 32 nM and 141 nM.
As for `C=CC(=O)N1CCC[C@@H](n2nc(C(=O)Nc3nc4cc(Cl)ccc4o3)c3c(N)ncc(Cl)c32)C1` [Example 74, (R)-1-(1-acryloylpiperidin-3-yl)-4-amino-7-chloro-N-(5-chlorobenzo[d]oxazol-2-yl)-1H-pyrazolo[4,3-c]pyridine-3-carboxamide], the IC50 at BTK was 3.3 nM; on ITK, 6.4 nM.
For `C=CC(=O)N1CCC[C@@H](n2nc(C(=O)Nc3nc4ccccc4o3)c3c(N)ncc(Cl)c32)C1` [Example 75, (R)-1-(1-acryloylpiperidin-3-yl)-4-amino-N-(benzo[d]oxazol-2-yl)-7-chloro-1H-pyrazolo[4,3-c]pyridine-3-carboxamide], the figures for the IC50 at BTK and at ITK were 2.2 nM and 2.4 nM, respectively.
Consider `C=CC(=O)N1CCC[C@@H](n2nc(C(=O)Nc3nc4cc(F)ccc4o3)c3c(N)ncc(Cl)c32)C1` [Example 76, (R)-1-(1-acryloylpiperidin-3-yl)-4-amino-7-chloro-N-(5-fluorobenzo[d]oxazol-2-yl)-1H-pyrazolo[4,3-c]pyridine-3-carboxamide], for which the IC50 at BTK came to 1.5 nM; at ITK it was 2.1 nM.
In the same order, the values of `C=CC(=O)N1CCC[C@@H](n2nc(C(=O)Nc3nc4ccccc4o3)c3c(N)nccc32)C1` [Example 77, (R)-1-(1-acryloylpiperidin-3-yl)-4-amino-N-(benzo[d]oxazol-2-yl)-1H-pyrazolo[4,3-c]pyridine-3-carboxamide] are 5 nM and 13.1 nM.
In the same order, the values of `C=CC(=O)N1CCC[C@@H](n2nc(C(=O)Nc3ccccc3)c3c(N)ncc(Cl)c32)C1` [Example 78, (R)-1-(1-acryloylpiperidin-3-yl)-4-amino-7-chloro-N-phenyl-1H-pyrazolo[4,3-c]pyridine-3-carboxamide] are 22.1 nM and 27 nM.
In the same order, the values of `C=CC(=O)N1CCC[C@@H](n2nc(C(=O)Nc3ccc4c(c3)OCCO4)c3c(N)ncc(Cl)c32)C1` [Example 79, (R)-1-(1-acryloylpiperidin-3-yl)-4-amino-7-chloro-N-(2,3-di hydrobenzo[b][1,4]dioxin-6-yl)-1H-pyrazolo[4,3-c]pyridine-3-carboxamide] are 100 nM and 54.9 nM.
